Reference: BindingDB's records for doi:10.1016/j.bmcl.2012.12.028 (Pfizer, 2013)

Biological target: T1, P-selectin (Homo sapiens, UniProt P16109)
T1 sequence (P16109 whole entry): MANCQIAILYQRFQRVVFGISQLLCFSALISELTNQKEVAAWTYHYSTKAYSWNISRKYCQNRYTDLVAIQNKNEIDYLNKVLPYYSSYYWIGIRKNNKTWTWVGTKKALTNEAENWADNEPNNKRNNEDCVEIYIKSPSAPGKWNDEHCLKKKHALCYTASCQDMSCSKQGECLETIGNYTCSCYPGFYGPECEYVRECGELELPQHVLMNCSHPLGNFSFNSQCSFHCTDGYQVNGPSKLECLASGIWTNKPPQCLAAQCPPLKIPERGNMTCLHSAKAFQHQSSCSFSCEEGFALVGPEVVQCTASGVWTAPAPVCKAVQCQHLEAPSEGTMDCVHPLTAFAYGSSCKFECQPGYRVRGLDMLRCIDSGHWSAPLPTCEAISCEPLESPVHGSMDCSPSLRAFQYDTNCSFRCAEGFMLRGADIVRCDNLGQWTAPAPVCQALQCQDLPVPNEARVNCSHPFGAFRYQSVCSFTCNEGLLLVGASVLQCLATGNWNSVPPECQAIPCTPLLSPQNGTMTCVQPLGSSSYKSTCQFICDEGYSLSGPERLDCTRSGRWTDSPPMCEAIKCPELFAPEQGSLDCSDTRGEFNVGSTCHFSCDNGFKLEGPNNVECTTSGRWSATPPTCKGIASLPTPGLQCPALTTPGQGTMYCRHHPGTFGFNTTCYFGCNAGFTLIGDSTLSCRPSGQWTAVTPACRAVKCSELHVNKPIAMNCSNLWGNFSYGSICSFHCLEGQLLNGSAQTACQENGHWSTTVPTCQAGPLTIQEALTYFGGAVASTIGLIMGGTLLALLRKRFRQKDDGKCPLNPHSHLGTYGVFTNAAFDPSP
Experiment: Inhibition of P-selectin aggregation in platelet surface (unknown origin)

| SMILES | IC50 |
| --- | --- |
| CN1CCC(NC(=O)c2cnc(NCc3cc(Cl)ccc3Cl)nc2NC2CCNCC2)CC1 | > 80 µM |
| COc1ccccc1CNc1ncc(C(=O)NCCCCN(C)C)c(NC2CCCC2)n1 | 7.1 µM |
| O[C@@H]1COC[C@H]1Nc1nc(Nc2cc(Cl)cc(Cl)c2)ncc1Br | 3.9 µM |
| O[C@@H]1COC[C@H]1Nc1nc(Nc2cc(Cl)cc(Cl)c2)ncc1-c1ccc(F)cc1 | > 80 µM |
| CN1CCC(NC(=O)c2cnc(Nc3cc(Cl)cc(Cl)c3)nc2N[C@H]2CCCCNC2=O)CC1 | 0.43 µM |
| COc1ccccc1CNc1ncc(C(=O)NC2CCN(C)CC2)c(NC2CCCC2)n1 | 1.5 µM |
| Cc1cc(-c2cnc(Nc3cc(Cl)cc(Cl)c3)nc2NC2CCNCC2)on1 | 1.6 µM |
| COc1ccccc1CNc1ncc(C(=O)NCCNC(C)=O)c(NC2CCCC2)n1 | 6.6 µM |
| COc1ccccc1CNc1ncc(C(=O)NCCCN2CCCC2=O)c(NC2CCCC2)n1 | 17 µM |
| Cc1cc(-c2cnc(Nc3cc(Cl)cc(Cl)c3)nc2NC2CCC(N(C)C)CC2)on1 (stereo not given) | 1 µM |
| CC[C@@H](CO)Nc1nc(Nc2cc(Cl)cc(Cl)c2)ncc1C(=O)NC1CCN(C)CC1 | 0.58 µM |
| COc1ccccc1CNc1ncc(C(=O)NCCCO)c(NC2CCCC2)n1 | 10 µM |
| CN1CCC(NC(=O)c2cnc(Nc3cc(Cl)cc(Cl)c3)nc2NC2CCC(N(C)C)CC2)CC1 (stereo not given) | 0.4 µM |
| O=C(NCCCN1CCCC1=O)c1cnc(NCc2cc(Cl)ccc2Cl)nc1NC1CCCC1 | 3.1 µM |
| CN1CCC(NC(=O)c2cnc(NCc3cc(Cl)ccc3Cl)nc2NC2CCCC2)CC1 | 1.2 µM |
| O=C(NCCCN1CCOC1=O)c1cnc(NCc2cc(Cl)ccc2Cl)nc1NC1CCCC1 | 7.4 µM |
| O[C@@H]1COC[C@H]1Nc1nc(Nc2cc(Cl)cc(Cl)c2)ncc1-c1cccnc1 | 3 µM |
| CN1CCC(NC(=O)c2cnc(Nc3cc(Cl)cc(Cl)c3)nc2N[C@@H]2COC[C@H]2O)CC1 | 2.2 µM |
| CN1CCC(NC(=O)c2cnc(Nc3cc(Cl)cc(Cl)c3)nc2NC2CCOCC2)CC1 | 1.2 µM |
| CN1CCC(NC(=O)c2cnc(NCc3cc(Cl)ccc3Cl)nc2NC2CCC(N(C)C)CC2)CC1 (stereo not given) | 1.1 µM |
